Common to all, as to type: cell-based
The subject of one experiment is Peptococcus prevoti. As to the kind of experiment: MIC anaerobic bacteria, agar-dilution. Conditions: Peptococcus prevoti 1281.
For a further experiment, the system named is Enterobacter aerogenes. Kind of experiment: MIC aerobic bacteria, standard agar-dilution assay. The conditions noted are these: Enterobacter aerogenes C32, 24 hours.
In another experiment the test system is Bacteroides vulgatis. Kind of experiment: MIC anaerobic bacteria, agar-dilution. The conditions noted are these: Bacteroides vulgatis 1211.
In a further experiment the test system is Bacteroides fragilis. Kind of experiment: MIC anaerobic bacteria, agar-dilution.
The subject of experiment [1] is Bacteroides melaninogenicus. Kind of experiment: MIC anaerobic bacteria, agar-dilution. The conditions noted are these: Bacteroides melaninogenicus 2736.
The test system of experiment [2] is Bacteroides thetaiotaomicron. As to the kind of experiment: MIC anaerobic bacteria, agar-dilution. Conditions: Bacteroides thetaiotaomicron 1438.

Some results are limits rather than exact numbers.

As to A41030 factor B, the MIC (commonly the least concentration at which growth counts as inhibited) with Peptococcus prevoti was at most 0.25 µg/mL; in the experiment with Enterobacter aerogenes, 64 µg/mL; against Bacteroides vulgatis it was 32 µg/mL; with Bacteroides fragilis (Bacteroides fragilis 111), 64 µg/mL; with Bacteroides fragilis (Bacteroides fragilis 1877) it was 32 µg/mL; with Bacteroides fragilis (Bacteroides fragilis 1936B) it was 32 µg/mL. For the same substance, the MIC in experiment [1] is 4 µg/mL; in experiment [2], 32 µg/mL.

Source of the values: patent US4695545A, “Culture and process for producing A41030 antibiotics” (Eli Lilly and Company, priority 1984, dated 1987).
